From US20100029682A1, “NOVEL CHROMENE AND THIOCHROMENE CARBOXAMIDE DERIVATIVES, METHODS FOR PREPARING SAME AND THERAPEUTIC APPLICATIONS OF SAME” (priority 2006, published 2010)
Structures can show the parent of a compound that is named as a salt.

In the case of `O=C(NCCCCN1CCN(c2ccccc2F)CC1)C1=Cc2ccccc2OC1` (as salt: HCl) [Example 3, 2-H-Chromene-3-carboxylic acid {4-[4-(2-fluorophenyl)-piperazin-1-yl]-butyl}-amide], the melting point is reported as 231 °C. Compound `O=C(NCCCCN1CCN(c2ccccc2)CC1)C1=Cc2ccccc2OC1` (as salt: HCl) [Example 4, 2H-Chromene-3-carboxylic acid {4-(4-phenylpiperazin-1-yl)-butyl}-amide] has a melting point of 239 °C. For `O=C(NCCCCN1CCN(c2ccc(Cl)cc2)CC1)C1=Cc2ccccc2OC1` (as salt: HCl) [Example 5, 2H-Chromene-3-carboxylic acid {4-[4-(4-chlorophenyl)-piperazin-1-yl]-butyl}-amide], the melting point was 236 °C. `O=C(NCCCCN1CCN(c2cccc(Cl)c2)CC1)C1=Cc2ccccc2OC1` (as salt: HCl) [Example 6, 2H-Chromene-3-carboxylic acid {4-[4-(3 chlorophenyl)-piperazin-1-yl]-butyl}-amide] gave a melting point of 216 °C. In the case of `O=C(NCCCCN1CCN(c2ccccc2Cl)CC1)C1=Cc2ccccc2OC1` (as salt: HCl) [Example 7, 2H-Chromene-3 carboxylic acid {4-[4-(2-chlorophenyl)-piperazin-1-yl]-butyl}-amide], the melting point is reported as 201 °C. `O=C(NCCCCN1CCN(c2ccc(F)cc2)CC1)C1=Cc2ccccc2OC1` (as salt: HCl) [Example 8, 2H Chromene-3-carboxylic acid {4-[4-(4 fluorophenyl)-piperazin-1-yl]-butyl}-amide] gave a melting point of 243 °C. In the case of `Cc1ccccc1N1CCN(CCCCNC(=O)C2=Cc3ccccc3OC2)CC1` (as salt: HCl) [Example 9, 2H Chromene-3-carboxylic acid {4-[4-(2-methylphenyl)-piperazin-1-yl]-butyl}-amide], the melting point is reported as 187 °C. For `Cc1ccc(N2CCN(CCCCNC(=O)C3=Cc4ccccc4OC3)CC2)c(C)c1` (as salt: HCl) [Example 10, 2H-Chromene-3-carboxylic acid {4-[4-(2,4-dimethylphenyl)-piperazin-1-yl]-butyl}-amide], the melting point was 207 °C. Compound `Cc1cccc(N2CCN(CCCCNC(=O)C3=Cc4ccccc4OC3)CC2)c1C` (as salt: HCl) [Example 11, 2H-Chromene-3-carboxylic acid {4-[4-(2,3-dimethylphenyl)piperazin-1-yl]-butyl}-amide] has a melting point of 202 °C. Work on `N#Cc1ccccc1N1CCN(CCCCNC(=O)C2=Cc3ccccc3OC2)CC1` (as salt: HCl) [Example 12, 2H-Chromene-3-carboxylic acid {4-[4-(2-cyanophenyl)-piperazin-1-yl]-butyl}-amide] yielded a melting point of 194 °C. Work on `N#Cc1ccc(N2CCN(CCCCNC(=O)C3=Cc4ccccc4OC3)CC2)cc1` (as salt: HCl) [Example 13, 2H-Chromene-3-carboxylic acid {4-[4-(4-cyanophenyl)piperazin 1-yl]-butyl}-amide] yielded a melting point of 212 °C. Work on `O=C(NCCCCN1CCN(c2ccc(C(F)(F)F)cc2)CC1)C1=Cc2ccccc2OC1` (as salt: HCl) [Example 15, 2-H-Chromene-3-carboxylic acid {4-[4-(4-trifluoromethylphenyl)-piperazin-1-yl]-butyl}-amide] yielded a melting point of 261.9 °C. For `O=C(NCCCCN1CCN(c2cccc(C(F)(F)F)c2)CC1)C1=Cc2ccccc2OC1` (as salt: HCl) [Example 16, 2H-Chromene-3-carboxylic acid {4-[4-(3-trifluoromethylphenyl)-piperazin-1-yl]-butyl}-amide], the melting point was 234 °C. Compound `O=C(NCCCCN1CCN(c2ccccc2C(F)(F)F)CC1)C1=Cc2ccccc2OC1` (as salt: HCl) [Example 17, 2H-Chromene-3 carboxylic acid {4-[4-(2-trifluoromethylphenyl)-piperazin-1-yl]-butyl}-amide] has a melting point of 161 °C. `O=C(NCCCCN1CCN(c2ccc([N+](=O)[O-])cc2)CC1)C1=Cc2ccccc2OC1` (as salt: HCl) [Example 18, 2H-Chromene 3 carboxylic acid {4-[4-(4-nitrophenyl)-piperazin-1-yl]-butyl}-amide] gave a melting point of 243 °C. Work on `COc1ccccc1N1CCN(CCCCNC(=O)C2=Cc3cc(Cl)ccc3OC2)CC1` (as salt: HCl) [Example 29, 6-Chloro-2H-chromene-3-carboxylic acid {4-[4-(2-methoxyphenyl)-piperazin-1-yl]-butyl}-amide] yielded a melting point of 155 °C. Compound `O=C(NCCCCN1CCN(c2ccccc2F)CC1)C1=Cc2cc(Cl)ccc2OC1` (as salt: HCl) [Example 30, 6-Chloro-2H-chromene-3-carboxylic acid {4-[4-(2-fluorophenyl)-piperazin-1-yl]-butyl}-amide] has a melting point of 214 °C. For `N#Cc1cccc(N2CCN(CCCCNC(=O)C3=Cc4cc(Cl)ccc4OC3)CC2)c1` (as salt: HCl) [Example 31, 6-Chloro-2H-chromene-3-carboxylic acid {4-[4-(3-cyanophenyl)-piperazin-1-yl]-butyl}-amide], the melting point was 120 °C (dec.). `O=C(NCCCCN1CCN(c2cccc(Cl)c2Cl)CC1)C1=Cc2ccccc2SC1` (as salt: HCl) [Example 32, 2H-thiochromene-3-carboxylic acid {4-[4-(2,3-dichlorophenyl)piperazin-1-yl]-butyl}-amide] showed a melting point of 215 °C. Work on `O=C(NCCCCN1CCN(c2ccccc2F)CC1)C1=Cc2ccccc2SC1` (as salt: HCl) [Example 33, 2H-Thiochromene-3-carboxylic acid {4-[4-(2-fluorophenyl)piperazin-1-yl]-butyl}-amide] yielded a melting point of 212 °C. With `COc1ccccc1N1CCN(CCCCNC(=O)C2=Cc3ccccc3SC2)CC1` (as salt: HCl) [Example 34, 2H-Thiochromene-3-carboxylic acid {4-[4-(2-methoxyphenyl)piperazin-1-yl]-butyl}-amide] the melting point was 208 °C. In the case of `N#Cc1cccc(N2CCN(CCCCNC(=O)C3=Cc4ccccc4SC3)CC2)c1` (as salt: HCl) [Example 35, 2H-Thiochromene-3-carboxylic acid {4-[4-(3-cyanophenyl)-piperazin-1-yl]-butyl}-amide], the melting point is reported as 209 °C. With `O=C(NCCCCN1CCN(c2cccc(O)c2)CC1)C1=Cc2ccccc2SC1` (as salt: HCl) [Example 41, 2H-Thiochromene-3-carboxylic acid {4-[4-(3-hydroxyphenyl)-piperazin-1-yl]-butyl}-amide] the melting point was 182 to 184 °C. Compound `CC1(C)Sc2ccccc2C=C1C(=O)NCCCCN1CCN(c2cccc(C#N)c2)CC1` (as salt: HCl) [Example 44, 2,2-Dimethyl-2H thiochromene-3-carboxylic acid {4-[4-(3-cyanophenyl)-piperazin-1-yl]-butyl}-amide] has a melting point of 155 °C. `O=C(NCCCCN1CCN(c2cccc(CO)c2)CC1)C1=Cc2ccccc2OC1` (as salt: HCl) [Example 46, 2H-chromene-3-carboxylic acid {4-[4-(3-hydroxymethylphenyl)-piperazin-1-yl]-butyl}-amide] showed a melting point of 194 °C. `COc1ccccc1N1CCN(CCCCNC(=O)C2=Cc3c(Br)ccc(OC)c3OC2)CC1` (as salt: HCl) [Example 50, 5-Bromo-8-methoxy-2H-chromene-3-carboxylic acid {4-[4-(2-methoxyphenyl)piperazin-1-yl]-butyl}-amide] gave a melting point of 176 °C. `COc1ccc(Br)c2c1OCC(C(=O)NCCCCN1CCN(c3cccc(Cl)c3Cl)CC1)=C2` (as salt: HCl) [Example 51, 5-Bromo 8 methoxy-2H-chromene-3-carboxylic acid {4-[4-(2,3-dichlorophenyl)-piperazin-1-yl]-butyl}-amide] gave a melting point of 205 °C. `COc1ccc(Br)c2c1OCC(C(=O)NCCCCN1CCN(c3cccc(C#N)c3)CC1)=C2` (as salt: HCl) [Example 52, 5-Bromo-8-methoxy-2H-chromene-3-carboxylic acid {4-[4-(3-cyanophenyl)piperazin-1-yl]-butyl}-amide] gave a melting point of 155 °C. In the case of `O=C(NCCCCN1CCN(c2cccc(O)c2)CC1)C1=Cc2ccccc2OC1` (as salt: HCl) [Example 53, 2H Chromene-3-carboxylic acid {4-[4-(3-hydroxyphenyl)-piperazin-1-yl]-butyl}-amide], the melting point is reported as 199 °C. For `COc1ccc2c(c1)C=C(C(=O)NCCCCN1CCN(c3ccccc3OC)CC1)CO2` (as salt: HCl) [Example 54, 6-Methoxy-2H-chromene-3-carboxylic acid {4-[4-(2-methoxyphenyl)piperazin-1-yl]-butyl}-amide], the melting point was 165 °C. In the case of `COc1ccc2c(c1)C=C(C(=O)NCCCCN1CCN(c3cccc(Cl)c3Cl)CC1)CO2` (as salt: HCl) [Example 55, 6-Methoxy-2H-chromene-3-carboxylic acid {4-[4-(2,3-dichlorophenyl)-piperazin-1-yl]-butyl}-amide], the melting point is reported as 205 °C. Work on `COc1ccc2c(c1)C=C(C(=O)NCCCCN1CCN(c3cccc(C#N)c3)CC1)CO2` (as salt: HCl) [Example 57, 6-Methoxy-2H-chromene-3-carboxylic acid {4-[4-(3-cyanophenyl)-piperazin-1-yl]-butyl}-amide] yielded a melting point of 159 °C. Work on `O=C(NCCCCN1CCN(c2ccccc2O)CC1)C1=Cc2ccccc2OC1` (as salt: HCl) [Example 58, 2H-Chromene-3-carboxylic acid {4-[4-(2-hydroxyphenyl)-piperazin-1-yl]-butyl}-amide] yielded a melting point of 189 °C. In the case of `O=C(NCCCCN1CCN(c2ccc(O)cc2)CC1)C1=Cc2ccccc2OC1` (as salt: HCl) [Example 59, 2H-Chromene-3-carboxylic acid {4-[4-(4-hydroxyphenyl)-piperazin-1-yl]-butyl}-amide], the melting point is reported as 236 °C. For `COc1ccccc1N1CCN(CCCCNC(=O)C2=Cc3ccccc3OC2)CC1` (as salt: hydrochloride) [Example 1, 2H-Chromene 3-carboxylic acid {4-[4-(2-methoxyphenyl)-piperazin-1-yl]-butyl}-amide], the melting point was 224 °C. Compound `O=C(NCCCCN1CCN(c2cccc(Cl)c2Cl)CC1)C1=Cc2ccccc2OC1` (as salt: hydrochloride) [Example 2, 2H-Chromene-3-carboxylic acid {4-[4-(2,3-dichlorophenyl)-piperazin-1-yl]-butyl}-amide] has a melting point of 201 °C.
